Source: US7868003B2, “Substituted 4-phenyltetrahydroisoquinolines, pharmaceutical compositions comprising them and therapeutic methods for their use” (Sanofi-Aventis, priority 2005, dated 2011)
Structures can show the parent of a compound that is named as a salt.

Molecular target: T1, sodium-proton exchanger subtype 3 (NHE3) (Homo sapiens, UniProt P48764)
T1 construct: expressed in transfected cells
T1 sequence (P48764 26-834): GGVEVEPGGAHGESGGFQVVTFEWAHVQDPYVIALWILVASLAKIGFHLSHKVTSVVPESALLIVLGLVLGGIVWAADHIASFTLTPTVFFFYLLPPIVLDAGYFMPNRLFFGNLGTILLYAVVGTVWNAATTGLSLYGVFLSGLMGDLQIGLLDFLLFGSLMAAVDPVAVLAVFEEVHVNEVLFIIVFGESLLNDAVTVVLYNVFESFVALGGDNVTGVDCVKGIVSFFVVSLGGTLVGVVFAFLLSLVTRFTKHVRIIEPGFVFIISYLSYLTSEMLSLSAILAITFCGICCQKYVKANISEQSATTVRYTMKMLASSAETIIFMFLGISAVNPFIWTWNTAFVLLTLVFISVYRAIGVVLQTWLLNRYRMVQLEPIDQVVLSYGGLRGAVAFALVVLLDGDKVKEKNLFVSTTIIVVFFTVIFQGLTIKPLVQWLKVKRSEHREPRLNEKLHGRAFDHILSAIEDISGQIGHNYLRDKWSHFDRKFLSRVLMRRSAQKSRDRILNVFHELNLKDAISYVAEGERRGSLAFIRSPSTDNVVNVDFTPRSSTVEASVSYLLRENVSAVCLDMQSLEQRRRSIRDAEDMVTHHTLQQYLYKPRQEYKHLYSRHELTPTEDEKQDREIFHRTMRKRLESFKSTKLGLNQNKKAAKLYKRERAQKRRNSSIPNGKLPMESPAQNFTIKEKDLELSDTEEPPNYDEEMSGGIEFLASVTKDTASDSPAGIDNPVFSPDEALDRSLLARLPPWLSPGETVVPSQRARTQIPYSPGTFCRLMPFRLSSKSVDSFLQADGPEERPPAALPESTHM
Experiment: recovery of intracellular pH (pHi) of LAP1 cells stably expressing NHE3 after acidification (BCECF, FLIPR)
Assay type: cell-based
Details: pH recovery in percent of maximum recovery, XLFit, read-out: IC50 (inhibitory action on the NHE3)
Experimental: In this test, the recovery in the intracellular pH (pHi) of LAP1 cells, which stably express the sodium-proton exchanger subtype 3 (NHE3), after an acidification was determined. This recovery sets in even under bicarbonate-free conditions in the case of functioning NHE3. To this end, the pHi was determined with the pH-sensitive fluorescent dye BCECF (Molecular Probes, Eugene, Oreg., USA; the precursor BCECF-AM is used). The cells were first incubated with BCECF (5 μM BCECF-AM) in NH4Cl buffer (NH4Cl buffer: 115 mM cholineCl, 20 mM NH4Cl, 5 mM KCl, 1 mM CaCl2, 1 mM MgCl2, 20 mM Hepes, 5 mM glucose; a pH of 7.4 is established with 1 M KOH). The intracellular acidification was induced by washing the cells incubated in NH4Cl buffer with NH4Cl-free buffer (133.8 mM choline chloride, 4.7 mM KCl, 1.25 mM CaCl2, 1.25 mM MgCl2, 0.97 mM K2HPO4, 0.23 mM KH2PO4, 5 mM Hepes, 5 mM glucose; a pH of 7.4 is established with 1 M KOH). After the washing operation, 90 μl of the NH4Cl-free buffer were left on the cells. The pH recovery was started by the addition of 90 μl of Na^+-containing buffer (133.8 mM NaCl, 4.7 mM KCl, 1.25 mM CaCl2, 1.25 mM MgCl2, 0.97 mM Na2HPO4, 0.23 mM NaH2PO4, 10 mM Hepes, 5 mM glucose; a pH of 7.4 is established with 1 M NaOH) in the analytical instrument (FLIPR, “Fluorometric Imaging Plate Reader”, Molecular Devices, Sunnyvale, Calif., USA). The BCECF fluorescence was determined at an excitation wavelength of 498 nm and the FLIPR emission filter 1 (band gap from 510 to 570 nm). The subsequent changes in fluorescence were registered for two minutes as a measure of the pH recovery. For the calculation of the NHE3-inhibitory potential of the tested substances, the cells were tested first in buffers in which full pH recovery, or none at all, took place. For full pH recovery (100%), the cells were incubated in Na^+-containing buffer (see above), and Na^+-free buffer for the determination of the 0% value (see above). The substances to be tested were made up in Na^+-containing buffer. The recovery in the intracellular pH at each tested concentration of a substance was expressed in percent of the maximum recovery. From the percentages of the pH recovery, the IC50 value of the particular substance for the NHE3 was calculated by means of the program XLFit (idbs, Surrey, UK).

For CSCCC1NC(=O)N(c2ccccc2[C@@H]2CN(C)Cc3c(Cl)cc(Cl)cc32)C1=O (mixture of isomers) [Example 57, (R and S)-3-[2-((R)-6,8-Dichloro-2-methyl-1,2,3,4-tetrahydroisoquinolin-4-yl)phenyl]-5-(2-methylsulfanylethyl)imidazolidine-2,4-dione trifluoroacetic acid salt], which IC50 is on record?
Its IC50 is 1400 nM.

With CN1Cc2c(Cl)cc(Cl)cc2[C@H](c2cccc(N3C(=O)CNC3=O)c2)C1 [Example 4, 3-[3-((S)-6,8-Dichloro-2-methyl-1,2,3,4-tetrahydroisoquinolin-4-yl)phenyl]-imidazolidine-2,4-dione hydrochloride] as the compound, how does the IC50 read?
Its IC50 is 129 nM.

For CN1Cc2c(Cl)cc(Cl)cc2[C@H](c2ccccc2N2C(=O)CCC2=O)C1 [Example 7, 1-[2-((R)-6,8-Dichloro-2-methyl-1,2,3,4-tetrahydroisoquinolin-4-yl)phenyl]-pyrrolidine-2,5-dione hydrochloride], which IC50 is on record?
The IC50 was 39 nM.

Which IC50 does the source give for CN1Cc2c(Cl)cc(Cl)cc2C(c2ccc(N3CCNS3(=O)=O)cc2)C1 (stereo not drawn) [Example 8, 6,8-Dichloro-4-[4-(1,1-dioxo-1-λ^6-[1,2,5]thiadiazolidin-2-yl)phenyl]-2-methyl-1,2,3,4-tetrahydroisoquinoline] here?
The IC50 was 2590 nM.

CN1Cc2c(Cl)cc(Cl)cc2[C@H](c2cccc(N3C(=O)C=CC3=O)c2)C1 [Example 10] was tested. Which IC50 did it give?
The IC50 was 47 nM.

CN1Cc2c(Cl)cc(Cl)cc2[C@H](c2ccc(N3C(=O)CCC3=O)cc2)C1 [Example 14] was tested. Which IC50 did it give?
The IC50 was 119 nM.

How did the IC50 turn out when CN1Cc2c(Cl)cc(Cl)cc2[C@H](c2ccc(N3C(=O)CCCC3=O)cc2)C1 [Example 16] was run?
Its IC50 is 222 nM.

CC1CC(C)C(=O)N(c2ccccc2[C@@H]2CN(C)Cc3c(Cl)cc(Cl)cc32)C1=O (stereo partly drawn) [Example 29] was tested. Which IC50 did it give?
The IC50 was 1200 nM.

How did the IC50 turn out when CN1Cc2c(Cl)cc(Cl)cc2[C@@H](c2ccccc2N2C(=O)CCC2=O)C1 [Example 34] was run?
Its IC50 is 29200 nM.

For CN1Cc2c(Cl)cc(Cl)cc2[C@H](c2ccccc2N2CCCC2=O)C1 [Example 35, 1-[2-((R)-6,8-Dichloro-2-methyl-1,2,3,4-tetrahydroisoquinolin-4-yl)phenyl]-pyrrolidin-2-one trifluoroacetate], which IC50 is on record?
Its IC50 is 82 nM.

Which IC50 does the source give for CN1Cc2c(Cl)cc(Cl)cc2[C@H](c2cccc(N3CCCCC3=O)c2)C1 [Example 38, 1-[3-((S)-6,8-Dichloro-2-methyl-1,2,3,4-tetrahydroisoquinolin-4-yl)phenyl]-piperidin-2-one] here?
Its IC50 is 461 nM.

For CN1Cc2c(Cl)cc(Cl)cc2[C@H](c2ccccc2-n2cc[nH]c2=O)C1 [Example 40, 1-[2-((R)-6,8-Dichloro-2-methyl-1,2,3,4-tetrahydroisoquinolin-4-yl)phenyl]-1,3-dihydroimidazol-2-one hydrochloride], which IC50 is on record?
Its IC50 is 131 nM.

How did the IC50 turn out when CN1Cc2c(Cl)cc(Cl)cc2[C@H](c2ccccc2N2C(=O)CSC2=O)C1 [Example 42, 3-[2-((R)-6,8-Dichloro-2-methyl-1,2,3,4-tetrahydroisoquinolin-4-yl)phenyl]-thiazolidine-2,4-dione] was run?
The IC50 was 69 nM.

With CN1Cc2c(Cl)cc(Cl)cc2[C@H](c2ccccc2N2C(=O)COC2=O)C1 [Example 43, 3-[2-((R)-6,8-Dichloro-2-methyl-1,2,3,4-tetrahydroisoquinolin-4-yl)phenyl]-oxazolidine-2,4-dione] as the compound, how does the IC50 read?
The IC50 was 49 nM.

Which IC50 does the source give for CN1Cc2c(Cl)cc(Cl)cc2[C@H](c2ccccc2N2C(=O)COCC2=O)C1 [Example 44, 4-[2-((R)-6,8-Dichloro-2-methyl-1,2,3,4-tetrahydroisoquinolin-4-yl)phenyl]-morpholine-3,5-dione trifluoroacetic acid salt] here?
Its IC50 is 220 nM.

CN1Cc2c(Cl)cc(Cl)cc2[C@H](c2ccccc2N2CCOC2=O)C1 [Example 46, 3-[2-((R)-6,8-Dichloro-2-methyl-1,2,3,4-tetrahydroisoquinolin-4-yl)phenyl]-oxazolidin-2-one] was tested. Which IC50 did it give?
Its IC50 is 220 nM.

Which IC50 does the source give for CN1Cc2c(Cl)cc(Cl)cc2[C@H](c2ccccc2N2CCCS2(=O)=O)C1 [Example 51, (R)-6,8-Dichloro-4-[2-(1,1-dioxo-1-λ^6-isothiazolidin-2-yl)phenyl]-2-methyl-1,2,3,4-tetrahydroisoquinoline hydrochloride] here?
The IC50 was 141 nM.

With O=C1CCC(=O)N1c1ccccc1[C@@H]1CNCc2c(Cl)cc(Cl)cc21 [Example 52, 1-[2-((R)-6,8-Dichloro-1,2,3,4-tetrahydroisoquinolin-4-yl)phenyl]-pyrrolidine-2,5-dione trifluoroacetic acid salt] as the compound, how does the IC50 read?
Its IC50 is 12300 nM.

Which IC50 does the source give for CN1CC(=O)N(c2ccccc2[C@@H]2CN(C3CC3)Cc3c(Cl)cc(Cl)cc32)C1=O [Example 55, 3-[2-((R)-6,8-Dichloro-2-cyclopropyl-1,2,3,4-tetrahydroisoquinolin-4-yl)-phenyl]-1-methylimidazolidine-2,4-dione hydrochloride] here?
Its IC50 is 120 nM.

How did the IC50 turn out when CC(C)CC1NC(=O)N(c2ccccc2[C@@H]2CN(C)Cc3c(Cl)cc(Cl)cc32)C1=O (stereo partly drawn) [Example 58] was run?
Its IC50 is 7400 nM.

For CN1Cc2c(Br)cc(Cl)cc2C(c2ccccc2N2CCCC2=O)C1 (stereo not drawn) [Example 64, 1-[2-(8-Bromo-6-chloro-2-methyl-1,2,3,4-tetrahydroisoquinolin-4-yl)-phenyl]pyrrolidin-2-one], which IC50 is on record?
Its IC50 is 250 nM.
